# Test results published in paper PMC6099356 (The New Phytologist, 2018).
# Tested on: HA‐SlCaM3/4/5
# Type: binding, tomato (Solanum lycopersicum)
row,Compound,effect on GFP-SFI5/HA-SlCaM3/4/5 association
1,LaCl3,significantly inhibited by the presence of CaM antagonist and Ca^2+ channel blockers
2,"NCCCCCCNS(=O)(=O)c1cccc2c(Cl)cccc12 [Peptide W7, N‐(6‐aminohexyl)‐5‐chloro‐1‐naphthalene‐sulphonamide]",significantly inhibited by the presence of CaM antagonist and Ca^2+ channel blockers
3,EDTA,significantly inhibited by the presence of CaM antagonist and Ca^2+ channel blockers
